# Reference: a melting point compilation (Tetko et al.)
row,Structure (SMILES),melting point
1,NC(=O)C1CCN(Cc2cccc(N)c2)CC1,139 to 141 °C
2,COC(=O)C1CNNC(=O)C1 (configuration not stated),119 to 121 °C
3,CCCN(C(=O)c1ccccc1N)C(C)C,64 to 66 °C
4,O=C(O)CNC(=O)c1ccccc1OC(F)F,66 to 68 °C
5,Sc1nnc(CCCc2ccccc2)o1,53 to 55 °C
6,Cc1cccc2c(CCC(=O)O)c[nH]c12,149 to 151 °C
7,CC(N)c1ccc(NC(=O)c2ccncc2)cc1 (configuration not stated),159 to 161 °C
8,CC(O)c1ccccc1NC(=O)c1ccccc1 (configuration not stated),111 to 113 °C
9,COc1ccc(Cl)cc1C1(CN)CCOCC1,100 to 102 °C
10,NC(=O)CCN(C(=O)CCl)c1ccccc1,143 to 145 °C
11,CC(C)N1CCC(N2CCNCC2)CC1,46 to 48 °C
12,O=C(CCl)Nc1ccc(-c2ccccc2)cc1,121 to 123 °C
13,NC(=O)c1ccc(C(=O)O)nc1,249 to 251 °C
14,Cc1csc(-c2no[nH]c2=N)n1,147 to 149 °C
15,O=C(O)CSc1nnc(-c2ccc(F)cc2)n1CC1CCCO1 (configuration not stated),131 to 133 °C
16,Clc1nc(CN2CCOCC2)nc2sc3c(c12)CCC3,103 to 107 °C
17,O=S(=O)(Cl)c1cn2c(n1)CCCC2,74 to 76 °C
18,O=C(Nc1ccccc1[N+](=O)[O-])c1ccc2ccccc2n1,73 to 75 °C
19,CN(c1ccc(O)cc1)S(=O)(=O)c1ccc(Cl)cc1,154 to 156 °C
20,CCc1c[nH]c(S)n1,163 to 165 °C
21,CC(C)(C)OC(=O)NC12CCC(C(=O)O)(C1)C2,169 to 171 °C
22,O=C1CNc2ccncc2N1,259 to 261 °C
23,O=Cc1cn(-c2ccccc2)nc1-c1cccnc1,110 to 112 °C
24,NS(=O)(=O)c1ccc(Cl)c(C(=O)O)c1,219 to 221 °C

row,Structure (SMILES),melting point
1,N#CCS(N)(=O)=O,100 to 102 °C
2,O=C(O)C1CC2CCC(C1)N2C1CC1 (configuration not stated),156 to 158 °C
3,Cc1cccn2cc(-c3ccc(N)cc3)nc12,161 to 163 °C
4,O=C1NC(=O)C(=O)C(=O)N1,255 to 257 °C
5,O=c1[nH]c(C(F)(F)F)cs1,91 to 93 °C
6,COc1ccc(Br)cc1C(N)CO (configuration not stated),99 to 101 °C
7,N#Cc1cnc2ccccc2c1N1CCNCC1,160 to 162 °C
8,Nc1cccc2[nH]ncc12,145 to 147 °C
9,COC(=O)c1cc(Cl)cc(Cl)c1N,65 to 67 °C
10,Cc1nc(S(=O)(=O)NCC(=O)O)cn1C,217 to 219 °C
11,Cc1cccc(-c2nc(C)n[nH]2)c1,140 to 142 °C
12,O=C(O)c1ccc(CN2CCCCC2=O)cc1,181 to 183 °C
13,O=C(O)c1cn(C2CCCCC2)nn1,163 to 165 °C
14,COc1ccc(NC(=S)NN)cn1,154 to 156 °C
15,NCc1ccc(NC(=O)c2ccco2)cc1,102 to 104 °C
16,COc1ccc(C(N)=NO)cn1,162 to 164 °C
17,Nc1ccc(C(=O)N2CCCCCC2)cc1,133 to 135 °C
18,O=C(O)c1ccccc1-c1nc2ccccc2s1,190 to 192 °C
19,CC1CC1c1ccc(C(=O)O)o1 (configuration not stated),55 to 57 °C
20,Cc1nc(Cl)c2c(-c3ccccc3)c(C)sc2n1,60 to 62 °C
21,NS(=O)(=O)CC1CCOCC1,85 to 87 °C
22,O=C(/C=C/c1ccc2c(c1)CCO2)N1CCCC(CO)C1 (configuration not stated),131 to 133 °C
23,O=C(O)C1CCCN(S(=O)(=O)c2ccc3ccccc3c2)C1 (configuration not stated),137 to 139 °C
24,COc1cc2nc(C)sc2cc1N,89 to 91 °C

row,Structure (SMILES),melting point
1,O=C1COc2cc(NC(=O)OCC(F)(F)F)c(Cl)cc2N1,227 to 229 °C
2,O=C(O)c1cc(Br)c2c(c1)OCCO2,258 to 260 °C
3,CC(=O)c1c(C)nn(CCS(C)(=O)=O)c1C,139 to 141 °C
4,NNC(=O)CCc1cccnc1,92 to 94 °C
5,Nc1ccc(NC(=O)Oc2ccccc2)cc1,135 to 137 °C
6,COc1cccc(-n2cnnc2S)c1,167 to 169 °C
7,Cc1cc(C(=O)O)nn1C1CCCCC1,145 to 147 °C
8,CCN(CC)S(=O)(=O)c1cccc(C(=O)NC(C(=O)O)C(C)C)c1 (configuration not stated),110 to 112 °C
9,Cc1c(F)cc(C(=O)O)cc1[N+](=O)[O-],168 to 170 °C
10,NS(=O)(=O)c1ccc(C(=O)O)cc1Br,201 to 203 °C
11,Cc1cc(F)c(S(=O)(=O)Cl)cc1[N+](=O)[O-],64 to 66 °C
12,COc1ccc(-c2cc(C(=O)NN)c3ccccc3n2)cc1OC,181 to 183 °C
13,O=C(O)c1ccc(COc2ccccc2)s1,134 to 136 °C
14,Nc1nnc(CCc2ccccc2)o1,195 to 197 °C
15,COc1cc(C=O)cc(Br)c1OCC(=O)N(C)C,62 to 64 °C
16,O=C(O)c1cnc(O)cc1O,293 to 295 °C
17,Cc1ccc(NC(=O)CC(N)=NO)cc1,168 to 170 °C
18,COCC(C)NC(=O)CC#N (configuration not stated),40 to 44 °C
19,O=Cc1cc(Br)c2c(c1)OCO2,117 to 119 °C
20,CN(C(=O)c1ccc(N)cc1)C1CCCCC1,176 to 178 °C
21,NNc1cccnc1Cl,149 to 151 °C
22,Nc1cc2c(cc1F)CCC(=O)N2,174 to 176 °C
23,Nc1ccc(C(=O)N2CC(=O)Nc3ccccc32)cc1,286 to 288 °C
24,Cc1csc(Sc2c(N)cccc2Cl)n1,132 to 134 °C
